PubChem BioAssay (NCI)
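Grown in 96-well plates, cells were treated for 48 hours with each compound at five concentrations. Insufficient inhibition: endpoint recorded as highest concentration tested. TGI: total growth inhibition.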

Experiments:
Test in all cases: NCI anticancer screen, dose series, 48 h
HS 578T breast = test system: HS 578T breast
HCT-15 colon = test system: HCT-15 colon
HL-60(TB) leukemia = test system: HL-60(TB) leukemia
HOP-62 NSCLC = test system: HOP-62 NSCLC
SF-295 CNS = test system: SF-295 CNS
IGROV1 ovarian = test system: IGROV1 ovarian
MDA-N = test system: MDA-N

Row | SMILES | TGI (HS 578T breast) [µM] | TGI (HCT-15 colon) [µM] | TGI (HL-60(TB) leukemia) [µM] | TGI (HOP-62 NSCLC) [µM] | TGI (SF-295 CNS) [µM] | TGI (IGROV1 ovarian) [µM] | TGI (MDA-N) [µM]
1 | COC(=O)C1Cc2ccc(O)c(O)c2CN1 (centres undefined) | 56 | 87.1 | 72.6 | > 100 | 20.4 | > 100 | 30.8
2 | O=P1(c2ccccc2)c2ccccc2-c2ccccc21 | > 100 | > 100 | > 100 | > 100 | > 100 | > 100 | > 100
3 | S=C(N/N=C(\c1ccccc1)c1ccccn1)NC1CCCCC1 | > 100 | > 100 | > 100 | > 100 | > 80.1 | > 100 | > 100
4 | COc1cc(C2C3=C(COC3=O)Oc3cc4c(cc32)OCO4)ccc1O (centres undefined) |  | > 100 |  | > 100 |  | > 100 | 0.346
5 | COC(=O)/C=C\C(C#N)(C#N)N=Cc1cccc(OC)c1 | 38 | 4.54 | > 100 | > 62.1 | 53.8 | 24 | 17.2
6 | CCCNC(=S)N/N=C(\C)c1ccc(S(=O)(=O)N(C)c2ccccc2)cc1 | 24.4 | > 100 | > 100 | 29 | 58 | > 66.1 | > 100
7 | CCc1c2c(cc3c1CC1(C3)Cc3cc4c(c(C(=O)OC)c3C1)CCCC4)CCCC2 (centres undefined) | 46.6 | > 100 | > 100 | > 100 | > 100 | > 100 | > 100
8 | COc1cccc(C23CCCC(C2)NCC3Br)c1OC (centres undefined) | 78.5 | > 100 |  | > 100 | > 100 | > 100 | > 100
9 | O=[N+]([O-])C(/C=C(\Cl)[N+](=O)[O-])=C1Nc2ccccc2N1 | > 100 | > 100 | > 100 | > 100 | > 100 | > 100 | > 100
10 | CCNC(=O)c1cc(Cl)ccc1NC(=O)C12CC3CC(CC(C3)C1)C2 | > 100 | > 100 | > 100 | > 100 | > 100 | > 100 | 70.9
11 | CN(CC(=O)O)c1ncc2c(n1)C=CCC2 | > 100 | > 100 | > 100 | > 100 | > 100 | > 100 | > 100
12 | COc1ccc(OC)c(NCC(=O)Nn2cnc3ccc(S(=O)(=O)Nc4cc(OC)ccc4OC)cc3c2=O)c1 | > 100 | > 100 | 43.1 | > 100 | > 100 | > 100 | > 100
13 | CCCCn1c(CSc2ccc(Cl)cc2)c(C(=O)OCC)c2cc(OC)c(Br)cc21 | > 100 | > 100 | > 100 | > 100 | > 100 | > 100 | > 100
14 | COc1cc(-c2nc3ccc(N4CCN(C)CC4)cc3[nH]2)c(OC)c2[nH]c(COC(C)=O)nc12 | > 100 | > 100 | > 100 | > 100 | > 100 | > 100 | > 100
15 | Cc1ccc(C2(c3ccc(Cl)cc3)c3ccccc3C3=NCCN32)cc1 (centres undefined) | 33.4 | 24 | 23.9 | 23.8 | 20.6 | 14.9 | 12.4
16 | CCOC(=O)c1nc2ccc(C(F)(F)F)cc2nc1Nc1cc(OC)c(OC)c(OC)c1 | > 100 | > 100 | > 100 | > 100 | > 100 | > 100 | > 100
17 | O=C(CN(C(=O)OC12CC3CC(CC(C3)C1)C2)C(=O)OC12CC3CC(CC(C3)C1)C2)Oc1ccc([N+](=O)[O-])cc1 | > 100 | > 100 |  | > 100 | > 100 | > 100 | > 100
18 | COc1ccc([N+](=O)[O-])c2c(NCCCN(C)C)ccnc12 | 34.6 | 4.95 | 22.8 | 15.6 | 24.8 | 4.85 | 27
19 | CC(O)C1(CNc2cc(Cl)nc(N)n2)CCCCC1 (centres undefined) | > 100 | > 100 | > 100 | > 100 | > 100 | > 100 | > 100
20 | COc1ccc(/C=C/C(=O)/C=C/c2ccc(OC)cc2OC)c(OC)c1 | > 100 | 20 | 13.9 | 81.1 | 72.5 | 36.1 | 6
21 | CCOC(=O)c1cc(-n2nnc3ccccc32)cn1C | > 10 | > 10 | > 10 | > 10 | > 10 | > 10 | > 10
22 | CC(Oc1ccccc1Cl)C(=O)NN1C(=O)CC(=O)N(c2ccccc2)C1=S (centres undefined) | > 100 | > 100 | 59.7 | > 100 | > 100 | > 100 | > 100
23 | C1CSCCSCCCSC2CCCCC2SC1 (centres undefined) |  | > 100 | 95.3 | > 100 | > 100 | > 100 | > 100
24 | CCOP(=O)(OCC)/C(C#N)=C/c1cccn1C(C)C |  | > 100 |  | > 100 | > 100 | > 100 | > 100
25 | Clc1cc2nn(C3CCCCO3)nc2cc1Cl (centres undefined) | > 100 | > 100 |  | > 100 | > 100 | > 100 | > 100
26 | CSC1NC(c2ccccc2)=C(C#N)C(=O)N1C1OCC(OC(C)=O)C(OC(C)=O)C1OC(C)=O (centres undefined) | > 100 | > 100 |  | > 100 | > 100 | > 100 | > 100
27 | S=C1NC2=C(COc3ccccc32)C(c2ccc(Cl)cc2)N1 (centres undefined) | 50.4 |  | 43.3 | 31 | 29 | 31.6 | 29.9
28 | COc1ccc(/C(C)=N/NC(=O)c2ccncc2)c(OC)c1 | > 10 | > 10 | > 10 | > 10 |  | > 10 | > 10
